# Source: PubChem BioAssay (NCI)
#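 Protocol summary: plate cells (96-well), add compound at 5 concentrations, incubate 48 h, interpolate endpoints linearly. TGI: total growth inhibition.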
# Legend:
# Assay in all cases: growth of human tumour cells (NCI), 48 h
# 786-0 renal = tested on: 786-0 renal
# A498 renal = tested on: A498 renal
# A549 NSCLC = tested on: A549 NSCLC
# ACHN renal = tested on: ACHN renal
# BT-549 breast = tested on: BT-549 breast
# CAKI-1 renal = tested on: CAKI-1 renal
# CCRF-CEM leukemia = tested on: CCRF-CEM leukemia
# COLO 205 colon = tested on: COLO 205 colon
# DU-145 prostate = tested on: DU-145 prostate
# EKVX NSCLC = tested on: EKVX NSCLC
# HCC-2998 colon = tested on: HCC-2998 colon
# HCT-116 colon = tested on: HCT-116 colon
# HCT-15 colon = tested on: HCT-15 colon
# HOP-62 NSCLC = tested on: HOP-62 NSCLC
# HOP-92 NSCLC = tested on: HOP-92 NSCLC
# HS 578T breast = tested on: HS 578T breast
# HT29 colon = tested on: HT29 colon
# IGROV1 ovarian = tested on: IGROV1 ovarian
# K-562 leukemia = tested on: K-562 leukemia
# KM12 colon = tested on: KM12 colon
# LOX IMVI melanoma = tested on: LOX IMVI melanoma
# M14 melanoma = tested on: M14 melanoma
# MALME-3M melanoma = tested on: MALME-3M melanoma
# MCF7 breast = tested on: MCF7 breast
# MDA-MB-231 breast = tested on: MDA-MB-231 breast
# MDA-MB-435 = tested on: MDA-MB-435
# MDA-N = tested on: MDA-N
# MOLT-4 leukemia = tested on: MOLT-4 leukemia
# NCI-H226 lung = tested on: NCI-H226 lung
# NCI-H23 lung = tested on: NCI-H23 lung
# NCI-H460 lung = tested on: NCI-H460 lung
# NCI-H522 lung = tested on: NCI-H522 lung
# NCI/ADR-RES ovarian = tested on: NCI/ADR-RES ovarian
# OVCAR-3 ovarian = tested on: OVCAR-3 ovarian
# OVCAR-4 ovarian = tested on: OVCAR-4 ovarian
# OVCAR-5 ovarian = tested on: OVCAR-5 ovarian
# OVCAR-8 ovarian = tested on: OVCAR-8 ovarian
# PC-3 prostate = tested on: PC-3 prostate
# RPMI-8226 leukemia = tested on: RPMI-8226 leukemia
# RXF 393 renal = tested on: RXF 393 renal
# SF-268 CNS = tested on: SF-268 CNS
# SF-295 CNS = tested on: SF-295 CNS
# SF-539 CNS = tested on: SF-539 CNS
# SK-MEL-2 melanoma = tested on: SK-MEL-2 melanoma
# SK-MEL-28 melanoma = tested on: SK-MEL-28 melanoma
# SK-MEL-5 melanoma = tested on: SK-MEL-5 melanoma
# SK-OV-3 ovarian = tested on: SK-OV-3 ovarian
# SN12C renal = tested on: SN12C renal
# SNB-19 CNS = tested on: SNB-19 CNS
# SNB-75 CNS = tested on: SNB-75 CNS
# SR leukemia = tested on: SR leukemia
# SW-620 colon = tested on: SW-620 colon
# T-47D breast = tested on: T-47D breast
# TK-10 renal = tested on: TK-10 renal
# U251 CNS = tested on: U251 CNS
# UACC-257 melanoma = tested on: UACC-257 melanoma
# UACC-62 melanoma = tested on: UACC-62 melanoma
# UO-31 renal = tested on: UO-31 renal
# HL-60(TB) leukemia = tested on: HL-60(TB) leukemia
compound,measurement,setting,value
C=C1CCC(CC[C@@H]2CC[C@]3(OC2)O[C@@]2(O)CC[C@]3(C)OC2(C)C)C(C)(C)[C@H]1C/C=C1/C(=O)OC[C@@H]1O (some centres undefined),TGI,786-0 renal,7.78 µM
same,TGI,A498 renal,15.2 µM
same,TGI,A549 NSCLC,19.4 µM
same,TGI,ACHN renal,6.89 µM
same,TGI,BT-549 breast,4.76 µM
same,TGI,CAKI-1 renal,16.5 µM
same,TGI,CCRF-CEM leukemia,2.32 µM
same,TGI,COLO 205 colon,16.3 µM
same,TGI,DU-145 prostate,14.8 µM
same,TGI,EKVX NSCLC,11.3 µM
same,TGI,HCC-2998 colon,10.2 µM
same,TGI,HCT-116 colon,4.89 µM
same,TGI,HCT-15 colon,3.25 µM
same,TGI,HOP-62 NSCLC,19.9 µM
same,TGI,HOP-92 NSCLC,6.51 µM
same,TGI,HS 578T breast,28.8 µM
same,TGI,HT29 colon,5.01 µM
same,TGI,IGROV1 ovarian,11.6 µM
same,TGI,K-562 leukemia,2.38 µM
same,TGI,KM12 colon,6.35 µM
same,TGI,LOX IMVI melanoma,1.88 µM
same,TGI,M14 melanoma,12.3 µM
same,TGI,MALME-3M melanoma,5.99 µM
same,TGI,MCF7 breast,2.94 µM
same,TGI,MDA-MB-231 breast,3.72 µM
same,TGI,MDA-MB-435,5.82 µM
same,TGI,MDA-N,4.36 µM
same,TGI,MOLT-4 leukemia,5.45 µM
same,TGI,NCI-H226 lung,6.94 µM
same,TGI,NCI-H23 lung,5.2 µM
same,TGI,NCI-H460 lung,15.1 µM
same,TGI,NCI-H522 lung,3.5 µM
same,TGI,NCI/ADR-RES ovarian,6.92 µM
same,TGI,OVCAR-3 ovarian,7.41 µM
same,TGI,OVCAR-4 ovarian,5.51 µM
same,TGI,OVCAR-5 ovarian,6.65 µM
same,TGI,OVCAR-8 ovarian,5.04 µM
same,TGI,PC-3 prostate,10.7 µM
same,TGI,RPMI-8226 leukemia,> 25.1 µM
same,TGI,RXF 393 renal,4.88 µM
same,TGI,SF-268 CNS,8.89 µM
same,TGI,SF-295 CNS,10.5 µM
same,TGI,SF-539 CNS,9.18 µM
same,TGI,SK-MEL-2 melanoma,1.36 µM
same,TGI,SK-MEL-28 melanoma,3.58 µM
same,TGI,SK-MEL-5 melanoma,1.72 µM
same,TGI,SK-OV-3 ovarian,16.6 µM
same,TGI,SN12C renal,8.03 µM
same,TGI,SNB-19 CNS,8.88 µM
same,TGI,SNB-75 CNS,19.3 µM
same,TGI,SR leukemia,> 100 µM
same,TGI,SW-620 colon,12.6 µM
same,TGI,T-47D breast,6.15 µM
same,TGI,TK-10 renal,11.5 µM
same,TGI,U251 CNS,6.29 µM
same,TGI,UACC-257 melanoma,4.84 µM
same,TGI,UACC-62 melanoma,3.8 µM
same,TGI,UO-31 renal,9.33 µM
CCOc1ccc(/C=C2/C(=O)N=C(NC(C)=O)N2C)cc1,TGI,786-0 renal,> 100 µM
same,TGI,A498 renal,> 100 µM
same,TGI,A549 NSCLC,> 100 µM
same,TGI,ACHN renal,> 100 µM
same,TGI,BT-549 breast,> 100 µM
same,TGI,CAKI-1 renal,> 100 µM
same,TGI,COLO 205 colon,> 100 µM
same,TGI,DU-145 prostate,> 100 µM
same,TGI,EKVX NSCLC,> 100 µM
same,TGI,HCC-2998 colon,> 100 µM
same,TGI,HCT-116 colon,> 100 µM
same,TGI,HCT-15 colon,> 100 µM
same,TGI,HL-60(TB) leukemia,71.7 µM
same,TGI,HOP-62 NSCLC,> 100 µM
same,TGI,HOP-92 NSCLC,> 100 µM
same,TGI,HT29 colon,> 100 µM
same,TGI,IGROV1 ovarian,> 100 µM
same,TGI,KM12 colon,> 100 µM
same,TGI,LOX IMVI melanoma,> 100 µM
same,TGI,M14 melanoma,> 100 µM
same,TGI,MCF7 breast,> 100 µM
same,TGI,MDA-MB-231 breast,> 100 µM
same,TGI,MDA-MB-435,> 100 µM
same,TGI,MDA-N,> 100 µM
same,TGI,MOLT-4 leukemia,> 100 µM
same,TGI,NCI-H226 lung,> 100 µM
same,TGI,NCI-H23 lung,> 100 µM
same,TGI,NCI-H460 lung,> 100 µM
same,TGI,NCI/ADR-RES ovarian,> 100 µM
same,TGI,OVCAR-3 ovarian,> 100 µM
same,TGI,OVCAR-4 ovarian,> 100 µM
same,TGI,OVCAR-5 ovarian,> 100 µM
same,TGI,OVCAR-8 ovarian,> 100 µM
same,TGI,RXF 393 renal,> 100 µM
same,TGI,SF-268 CNS,> 100 µM
same,TGI,SF-295 CNS,> 100 µM
same,TGI,SF-539 CNS,> 100 µM
same,TGI,SK-MEL-2 melanoma,> 100 µM
same,TGI,SK-MEL-28 melanoma,> 100 µM
same,TGI,SK-MEL-5 melanoma,> 100 µM
same,TGI,SK-OV-3 ovarian,> 100 µM
same,TGI,SN12C renal,> 100 µM
same,TGI,SNB-19 CNS,> 100 µM
same,TGI,SNB-75 CNS,> 100 µM
same,TGI,SW-620 colon,> 100 µM
same,TGI,T-47D breast,> 100 µM
same,TGI,TK-10 renal,> 100 µM
same,TGI,U251 CNS,> 100 µM
same,TGI,UACC-257 melanoma,> 100 µM
same,TGI,UACC-62 melanoma,> 100 µM
same,TGI,UO-31 renal,> 100 µM
